Source: PubChem BioAssay (NCI)
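Growth conditions: 96-well plates. Treatment: test compound, 48 hours, 5 concentrations. Analysis: linear interpolation between bracketing concentrations; unreached endpoints set to highest concentration. GI50: concentration for 50% inhibition of growth. TGI denotes the concentration required for complete inhibition of growth.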

Columns and labels:
Assay in all cases: growth of human tumour cells (NCI), 48 h
[1] = system: OVCAR-8 ovarian
[2] = system: A549 NSCLC
[3] = system: HL-60(TB) leukemia
[4] = system: SK-MEL-2 melanoma
[5] = system: SN12C renal
[6] = system: A498 renal
[7] = system: KM12 colon
[8] = system: RPMI-8226 leukemia
[9] = system: SR leukemia
[10] = system: BT-549 breast
[11] = system: SF-268 CNS
[12] = system: MCF7 breast
[13] = system: SNB-75 CNS
[14] = system: CCRF-CEM leukemia
[15] = system: NCI-H226 lung
[16] = system: TK-10 renal
[17] = system: 786-0 renal
[18] = system: PC-3 prostate
[19] = system: SK-MEL-5 melanoma
[20] = system: HT29 colon
[21] = system: COLO 205 colon
[22] = system: HCT-15 colon
[23] = system: HCC-2998 colon
[24] = system: NCI-H23 lung
[25] = system: EKVX NSCLC
[26] = system: IGROV1 ovarian
[27] = system: RXF 393 renal
[28] = system: OVCAR-4 ovarian
[29] = system: HOP-92 NSCLC
[30] = system: HS 578T breast
[31] = system: K-562 leukemia
[32] = system: HOP-62 NSCLC
[33] = system: NCI/ADR-RES ovarian
[34] = system: SK-OV-3 ovarian
[35] = system: UO-31 renal
[36] = system: OVCAR-3 ovarian
[37] = system: UACC-257 melanoma
[38] = system: SF-539 CNS
[39] = system: NCI-H460 lung
[40] = system: MDA-MB-231 breast
[41] = system: SW-620 colon
[42] = system: SF-295 CNS
[43] = system: DU-145 prostate
[44] = system: SNB-19 CNS
[45] = system: MALME-3M melanoma
[46] = system: U251 CNS
[47] = system: OVCAR-5 ovarian
[48] = system: NCI-H522 lung
[49] = system: CAKI-1 renal
[50] = system: MOLT-4 leukemia
[51] = system: HCT-116 colon
[52] = system: ACHN renal
[53] = system: SK-MEL-28 melanoma
[54] = system: M14 melanoma
[55] = system: LOX IMVI melanoma

COc1cccc2cc(N(C)c3ncnc4ccccc34)ccc12
GI50 [1]: 0.0172 µM | TGI [1]: 32.6 µM | GI50 [2]: < 0.01 µM | TGI [2]: 9.11 µM | GI50 [3]: < 0.01 µM | TGI [3]: 0.0486 µM | GI50 [4]: 0.142 µM | TGI [4]: 14.4 µM | GI50 [5]: < 0.0159 µM | TGI [5]: 13.3 µM | GI50 [6]: < 0.01 µM | TGI [6]: 11 µM | GI50 [7]: < 0.01 µM | TGI [7]: 1.07 µM | TGI [8]: 4.99 µM | GI50 [9]: < 0.01 µM | TGI [9]: 24.8 µM | GI50 [10]: 0.0185 µM | TGI [10]: 6.64 µM | GI50 [11]: 0.0221 µM | TGI [11]: 14.1 µM | GI50 [12]: < 0.01 µM | TGI [12]: 12.3 µM | GI50 [13]: < 0.0105 µM | TGI [13]: 13 µM | GI50 [14]: < 0.0147 µM | TGI [14]: 17.8 µM | GI50 [15]: < 0.01 µM | TGI [15]: 0.827 µM | TGI [16]: 16.9 µM | GI50 [17]: < 0.0167 µM | TGI [17]: 5.9 µM | GI50 [18]: < 0.01 µM | TGI [18]: 15.6 µM | GI50 [19]: < 0.01 µM | TGI [19]: 0.0374 µM | GI50 [20]: < 0.01 µM | TGI [20]: 11.8 µM | GI50 [21]: < 0.01 µM | TGI [21]: 0.0659 µM | GI50 [22]: < 0.01 µM | TGI [22]: 12.8 µM | GI50 [23]: 0.0211 µM | TGI [23]: 5.43 µM | GI50 [24]: < 0.0156 µM | TGI [24]: 6.26 µM | GI50 [25]: 0.0772 µM | TGI [25]: 13.6 µM | GI50 [26]: < 0.01 µM | TGI [26]: 12.2 µM | GI50 [27]: < 0.01 µM | TGI [27]: 20 µM | GI50 [28]: < 0.0161 µM | TGI [28]: 13.5 µM | GI50 [29]: < 0.01 µM | TGI [29]: 1.03 µM | GI50 [30]: < 0.01 µM | TGI [30]: 20.4 µM | GI50 [31]: < 0.01 µM | TGI [31]: 25.1 µM | GI50 [32]: < 0.01 µM | TGI [32]: 15.4 µM | GI50 [33]: < 0.01 µM | TGI [33]: 0.629 µM | GI50 [34]: < 0.01 µM | TGI [34]: 18.4 µM | GI50 [35]: < 0.0287 µM | TGI [35]: 13.8 µM | GI50 [36]: < 0.01 µM | TGI [36]: < 0.0107 µM | GI50 [37]: 0.283 µM | TGI [37]: 10.6 µM | GI50 [38]: < 0.01 µM | GI50 [39]: < 0.01 µM | TGI [39]: 10.8 µM | GI50 [40]: 0.025 µM | TGI [40]: 13 µM | GI50 [41]: < 0.01 µM | TGI [41]: 17.6 µM | GI50 [42]: < 0.01 µM | TGI [42]: 11.4 µM | GI50 [43]: < 0.01 µM | TGI [43]: 10.4 µM | GI50 [44]: < 0.0132 µM | TGI [44]: 18.4 µM | GI50 [45]: < 0.0484 µM | TGI [45]: 10.1 µM | GI50 [46]: < 0.01 µM | TGI [46]: 11.6 µM | GI50 [47]: 0.0319 µM | TGI [47]: 17.4 µM | GI50 [48]: < 0.01 µM | TGI [48]: 3.12 µM | GI50 [49]: < 0.01 µM | TGI [49]: 12.3 µM | GI50 [50]: 0.0237 µM | TGI [50]: 15.2 µM | GI50 [51]: < 0.01 µM | TGI [51]: 0.521 µM | GI50 [52]: < 0.01 µM | TGI [52]: 7.52 µM | GI50 [53]: 1.35 µM | TGI [53]: 13.8 µM | GI50 [54]: < 0.01 µM | TGI [54]: 13.7 µM | GI50 [55]: < 0.0123 µM | TGI [55]: 13.5 µM

O=C1C(=O)c2ccccc2C(O)=C1Cc1ccccc1
TGI [4]: > 100 µM | TGI [6]: > 100 µM | TGI [10]: > 100 µM | TGI [16]: > 100 µM | TGI [17]: > 100 µM | TGI [18]: > 100 µM | TGI [19]: 39 µM | TGI [20]: > 100 µM | TGI [22]: > 100 µM | TGI [23]: > 100 µM | TGI [24]: > 100 µM | TGI [25]: > 100 µM | TGI [28]: > 100 µM | TGI [30]: > 100 µM | TGI [33]: > 100 µM | TGI [34]: > 100 µM | TGI [35]: > 100 µM | TGI [36]: 79.7 µM | TGI [37]: > 100 µM | TGI [40]: > 100 µM | TGI [42]: > 100 µM | TGI [47]: > 100 µM | TGI [51]: > 100 µM | TGI [53]: > 100 µM | TGI [54]: > 100 µM
